Where two headings read alike, the source gives them in different places.
Tested on: apoE secretion by THP-1 cell line
Assay type: cell-based, human
Settings: THP-1 cells, 3 days
Excerpt: The hydroxyphosphonates (Ia) and phosphonophosphates (Ib) of the invention can modulate (increase or decrease) the apoE production in plasma and in tissues. The activities of the compounds can be determined in an in vitro cell assay consisting in determining the effect of the test compound in modulating the secretion of apoE by an apoE secreting cell line (e.g., a monocyte-macrophage cell line such as the THP-1 cell line; a liver derived cell line such as the HepG2 cell line, an intestinal derived cell line such as the CaCo2 cell line or a brain derived cell line such as the astrocytoma CCF-STTG1 cell line).
THP-1 cell line (ATCC TIB-202) are cultured in RPMI 1640 (with 2 mM of L-glutamine and 2 g/l of glucose, Invitrogen) supplemented with 2 g/l of sodium hydrogen carbonate (Fluka), 10 U/ml of penicillin, 10 μg/ml of streptomycin (Penicillin-Streptomycin, Invitrogen), 20 μM of 2-mercaptoethanol (Fluka) and 10% FCS (Amimed). Cells are incubated at 37° C. and 5% CO2.
Cells are seeded in 24 well tissue culture plates (Falcon), 2×10^5 cells in 500 μl of culture medium per well or 6 well plates for RT-PCR purpose, 1×10^6 cells in 2.5 ml of medium. PMA (Phorbol 12-myristate 13-acetate, Alexis), (stock in DMSO (Fluka) at 1 mg/ml) and other compounds are diluted in ethanol and added to the cells at an ethanol final concentration not exceeding 1%. Same volume of ethanol is added in controls. Plates are incubated for 3 days at 37° C. and 5% CO2 to allow cell differentiation and apoE secretion.
Medium contained in the wells is harvested and centrifuged 5 min at 1200 rpm. Supernatants are store at −20° C. until apoE quantification. The cell pellets are resuspended in PBS and counted with a Z1 Coulter Counter. After a wash with PBS, adherent cells in the well bottoms are detached with trypsin-EDTA solution 10× (Invitrogen) diluted in PBS. The reaction is stopped with the addition of culture medium and the detached cells are counted.
ApoE was quantified by ELISA. 96 well plates (Costar) are coated with 5% of gelatine (from porcine skin, Fluka) in carbonate-bicarbonate buffer (Sigma) for 1 hour at 37° C. After removing the coating solution, 100 μl of THP-1 supernatant are added per well, diluted 5 times in buffer (PBS, 1% Top-Block (Juro), 0.1% Tween 20 (Fluka)). The incubation last 1 hour at 37° C., then the wells are washed 3 times with 200 μl of buffer. Plates are incubated for 1 hour at 37° C. with continuous stirring with the primary antibody (goat anti-human apoE IgG, Calbiochem) at a 10000-time dilution in buffer, 100 μl per well. After 3 washes, plates are incubated with the secondary antibody (rabbit anti-goat-IgG peroxidase conjugated, Sigma) diluted 5000 times, 100 μl per well, at 37° C. with shaking. Then the wells are washed 5 more times and the detection is achieved by adding 100 μl per well of o-phenylenediamine dihydrochloride (Sigma) and incubated for 15-20 minutes with shaking at room temperature. When the appropriated colour is reached, the reaction is stopped by adding 50 μl per well of 3 M sulfuric acid (Fluka) with shaking for 1 minute at room temperature. The absorbance is read at 492 nm versus 620 nm with a microplate photometer (Anthos Reader 2001).

Structure (SMILES) | % ApoE Change (compound 25 μM, 1.25 nM PMA) [%] | % ApoE Change (compound 25 μM, 2.5 nM PMA) [%] | % ApoE Change (compound 50 μM, 1.25 nM PMA) [%] | % ApoE Change (compound 50 μM, 2.5 nM PMA) [%] | % ApoE Change (compound 100 μM, 1.25 nM PMA) [%] | % ApoE Change (compound 100 μM, 2.5 nM PMA) [%]
CCOP(=O)(OCC)C(O)c1ccc(OCCCN2C(=O)c3ccccc3C2=O)cc1 (stereo not drawn) [Diethyl 1-hydroxy-1-{4-[3-N-phthalimido-propoxy]-phenyl}-methylphosphonate] | 543 | 304 | 961 | 396 | 1436 | 465
CCOP(=O)(OCC)OC(c1ccc(-c2ccccc2)cc1)P(=O)(OCC)OCC (stereo not drawn) [Diethyl 1-(diethoxy-phosphinyloxy)-1-(biphenyl-4-yl)-methyiphosphonate] | 172 | 138 | 198 | 119 | 142 | 71
CCOP(=O)(OCC)OC(c1cccc(OCCCCCN2C(=O)c3ccccc3C2=O)c1)P(=O)(OCC)OCC (stereo not drawn) [Diethyl 1-(diethoxy-phosphinyloxy)-1-[3-(5-N-phthalimido-pentoxy)-phenyl]-methylphosphonate] | 3375 | 1196 | 1526 | 310 | −93 | −92
CCOP(=O)(OCC)OC(c1cccc(OCc2cccnc2)c1)P(=O)(OCC)OCC (stereo not drawn) [Dietbyl 1-(diethoxy-phosphinyloxy)-1-[3-(pyridin-3-yl-methoxy)-phenyl]-methylphosphonate] | 52 | 15 | 551 | 6 | 1351 | 98
CCOP(=O)(OCC)OC(c1cc(OC)c2c(c1)OCO2)P(=O)(OCC)OCC (stereo not drawn) [Diethyl 1-(diethoxy-phosphinyloxy)-1-[4-(3-methoxy-4,5-methylenedioxy)-phenyl]-methylphosphonate] | −19 | 7 | 3 | −5 | 33 | 40
CCOP(=O)(OCC)C(O)c1ccc(OCc2ccccn2)cc1 (stereo not drawn) [Diethyl 1-hydroxy-1-[4-(pyridin-2-yl-methoxy)-phenyl]-methlyphosphonate] | −9 | 0 | 24 | 3 | 76 | 100
CCOP(=O)(OCC)OC(c1ccc(OCc2cccnc2)cc1)P(=O)(OCC)OCC (stereo not drawn) [Diethyl 1-(diethoxy-phosphinyloxy)-1-[4-(pyridin-3-yl-methoxy)-pheny]-methylphosphonate] | 95 | 179 | 189 | 245 | 535 | 434

From patent US20060128667A1, “Hydroxyphosphonates and phosphonophosphates as apolipoprotein e modulators” (priority 2002, published 2006)
